Drawing on patent publication US9233957B2, “5-carbamoyl-adamantan-2-yl amide derivatives, pharmaceutically acceptable salts thereof and preparation process thereof” (SK BIOPHARMACEUTICALS CO., LTD., priority 2011, dated 2016), this text covers IC50 and inhibition for nine molecules.

Each structure is given as a SMILES string. Where two headings read alike, the source gives them in different places.

One experiment deals with T1, Human 11b-HSD1 (Homo sapiens, UniProt P28845).
T1 construct: expressed in transfected cells
In words: Inhibition of cortisone-to-cortisol conversion in CHO-K1 cells over-expressing human 11b-HSD1 (HTRF cortisol assay). It is filed as cell-based. To be noted: CHO-K1 cells over-expressing human 11b-HSD1, 160 nM cortisone, 3 hours, 37° C. From the text: (§1) cDNA (human: Accession No. U12978.2; mouse: Accession No. NM_008288.2) coding the full-length amino acid sequence of 11β-HSD1 in a human and a mouse was incorporated into pMSCVpuro (from Clontech. Co. Ltd.), a vector of expressing a mammalian cell for the production of a retrovirus, and the resulting product was introduced into a GP2-293 cell (from Clontech Co. Ltd.), a retrovirus packing cell line together with pVSV-G vector (from Clontech Co. Ltd.) by using a Lipotamine plus reagent (from Invitrogen Co. Ltd.) in accordance with the method set forth in the appendix (by using HTRF cortisol assay kit from Cisbio assays Co., Ltd., catalog No. 62CO2PEB) and stabilized for 48 hours. Thereafter, viruses being obtained from those cells were used to infect CHO-K1 cell (from Korean Cell Line Bank, KCLB No. 10061) and in 24 hours, the cells were treated with 10 μg/ml pumycin (from Sigma Co. Ltd.) for two weeks to produce a stabilized cell system wherein each 11β-HSD1 in humans or in mice was over-expressed. When the cells being maintained, 5 μg/ml of puromycin was put into the medium and used (RPMI (Gibco), 37° C.). • Reference material: The EMBO Journal (2008) 27, 642-653
(§2) The obtained cells with 11b-HSD1 in a human and a mouse being over-expressed were sub-cultured in a 96-well plate with a cell number being 3×10^4 cells per well and stabilized for 24 hours [RPMI (Gibco), at 37° C., as being used in 5 days after thawing]. After a medium as diluted with DMSO including 160 nM of cortisone (from Sigma Co. Ltd.) and a test compound at a different concentration was put into each well in an amount of 200 ul, the well was cultured in a cell cultivator at 37° C. for 3 hours. 10 ul of the cultured solution was put into a 384 well plate and the amount of cortisol as generated was measured using a cortisol kit (from Cisbio international Co. Ltd, HTRF assay) in accordance with the method set forth in the appended manual.
(§3) As a control group, 160 nM of cortisone and 1% of DMSO were put into a corresponding well. The ground value was obtained from a well including only 160 nM of cortisone and 1% of DMSO without cells just like the control group. The calculation for a % inhibition level was made following the manual as appended. • Reference material: The Journal of Steroid Biochemistry and Molecular Biology, Volume 104, Issues 3-5, May 2007, Pages 123-129 • Bioorganic & Medicinal Chemistry Letters Volume 19, Issue 10, 15 May 2009, Pages 2674-2678
(§4) Like the analyzing method as stated above, the efficacy of inhibiting 11b-HSD1 was calculated as IC50 and the results are shown in Table 1: […]

For a further experiment, the target named is T2, Mouse 11b-HSD1 (Mus musculus, UniProt P50172).
T2 construct: expressed in transfected cells
In words: Inhibition of cortisone-to-cortisol conversion in CHO-K1 cells over-expressing mouse 11b-HSD1 (HTRF cortisol assay). It is filed as cell-based. To be noted: CHO-K1 cells over-expressing mouse 11b-HSD1, 160 nM cortisone, 3 hours, 37° C.
Description: as §1, §2, §3, §4

Another experiment concerns the target T3, 11b-HSD1 (Mus musculus, UniProt P50172).
T3 construct: the tissues in abdominal fat and the liver were obtained; from tissue; host or cells: abdominal fat and liver of C57Bl/6 mice
In words: Ex vivo PD assay: 11b-HSD1 inhibition in abdominal fat and liver tissue after oral administration to mice. To be noted: mouse C57B1/6, oral, vs vehicle group; for inhibition at 20 mg/kg: 6 hr; for inhibition at 10 mg/kg: 2 hr. Here is the method:
The prepared compound was orally administered to a mouse (C57B1/6, orient 8 week old, about 25 g, male) and in a proper amount of time (2 hours, 6 hours, 12 hours, 16 hours, and 24 hours), the mouse was sacrificed and around 30 to 40 mg of the tissues in abdominal fat and the liver were obtained. To 500 ul of a medium (RPMI, gibco) including 1 μM of cortisone (from Sigma Co. Ltd.) and 400 μM of NADPH (from Sigma Co. Ltd) was added the tissue as obtained (30-40 mg), which then reacted in a cell cultivator at 37° C. for 3 hours. After 50 ul of the reacted solution was taken and diluted with DMEM medium at a volume ratio of 1/10, the amount of cortisol being generated was measured by using a cortisol kit (assay designs Co. Ltd., ELISA kit) in accordance with the method set forth in the appended manual. From the results being measured, the degree of the inhibition was obtained by the conversion in comparison with the vehicle group (vehicle: 5% DMSO+5% cremophor in dw, the amount being proportionate to the body weight, i.e., the administration was made at the same volume as the drug being introduced). • Reference material: Published Aug. 15, 2005//JEM vol. 202 no. 4 517-527 The Rockefeller University Press % inhibition={(the amount of cortisol of the vehicle group−the amount of the cortisol of the group with the compound being administered)/(the amount of cortisol of the vehicle group)}×100
According to the above analyzing method, the efficacy of inhibiting 11b-HSD1 of the test compound in the target organ was calculated as % inhibition values, which are shown in Table 2 and Table 3.

Setting [1] is: abdominal fat, read-out: 11b-HSD1 % inhibition in the fat.
The mark [2] stands for this setting: liver, read-out: 11b-HSD1 % inhibition in the liver.

T2 sequence (P50172 whole entry): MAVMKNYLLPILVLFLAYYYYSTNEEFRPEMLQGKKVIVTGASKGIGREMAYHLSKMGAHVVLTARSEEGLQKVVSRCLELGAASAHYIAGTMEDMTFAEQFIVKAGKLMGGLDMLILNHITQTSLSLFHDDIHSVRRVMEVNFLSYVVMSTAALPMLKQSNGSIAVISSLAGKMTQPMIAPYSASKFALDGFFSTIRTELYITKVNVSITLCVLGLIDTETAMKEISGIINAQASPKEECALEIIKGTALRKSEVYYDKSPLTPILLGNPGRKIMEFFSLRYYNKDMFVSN
T3 sequence (P50172 whole entry): as above
T1 sequence (P28845 whole entry): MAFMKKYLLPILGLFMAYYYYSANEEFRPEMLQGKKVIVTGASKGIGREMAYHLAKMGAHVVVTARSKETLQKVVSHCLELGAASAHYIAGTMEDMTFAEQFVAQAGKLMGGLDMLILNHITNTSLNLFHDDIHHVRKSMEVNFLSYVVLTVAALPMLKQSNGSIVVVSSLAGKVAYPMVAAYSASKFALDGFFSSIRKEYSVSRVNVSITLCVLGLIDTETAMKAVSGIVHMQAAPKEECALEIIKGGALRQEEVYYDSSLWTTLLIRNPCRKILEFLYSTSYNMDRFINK

For the molecule `NC(=O)[C@]12CC3CC(C1)[C@@H](NC(=O)c1ccc(-c4cccc(Cl)c4)o1)C(C3)C2` [Example 26, N-(5-carbamoyl-2-adamantyl)-5-(3-chlorophenyl)furan-2-carboxamide], the IC50 against Human 11b-HSD1 and against Mouse 11b-HSD1 was less than 100 nM throughout. Further, the inhibition at 20 mg/kg at 11b-HSD1 (setting [1]) was determined as 71%; at 11b-HSD1 (setting [2]) it was 47%.

With `NC(=O)[C@]12CC3CC(C1)[C@@H](NC(=O)c1ccc(-c4ccccc4Cl)o1)C(C3)C2` [Example 27, N-(5-carbamoyl-2-adamantyl)-5-(2-chlorophenyl)furan-2-carboxamide], the IC50 against Human 11b-HSD1 and against Mouse 11b-HSD1 was less than 100 nM each time. In addition, the inhibition at 20 mg/kg stood at 80% on 11b-HSD1 (setting [1]) and 65% on 11b-HSD1 (setting [2]).

For `NC(=O)[C@]12CC3CC(C1)[C@@H](NC(=O)c1ccc(-c4ccccc4F)o1)C(C3)C2` [Example 30, N-(5-carbamoyl-2-adamantyl)-5-(2-fluorophenyl)furan-2-carboxamide], the IC50 on Human 11b-HSD1 and on Mouse 11b-HSD1 was less than 100 nM in each case. Also, the inhibition at 20 mg/kg on 11b-HSD1 (setting [1]) stood at 72%; on 11b-HSD1 (setting [2]) it was 69%.

For `Cn1c(C(=O)N[C@H]2C3CC4CC2C[C@](C(N)=O)(C4)C3)ccc1-c1ccccc1` [Example 34, N-(5-carbamoyl-2-adamantyl)-1-methyl-5-phenylpyrrole-2-carboxamide], the IC50 against Human 11b-HSD1 and against Mouse 11b-HSD1 was less than 100 nM in each case. In addition, the inhibition at 20 mg/kg on 11b-HSD1 (setting [1]) amounted to 96%; at 11b-HSD1 (setting [2]), 92%.

In the case of `Cn1c(C(=O)N[C@H]2C3CC4CC2C[C@](C(N)=O)(C4)C3)ccc1-c1ccccc1Cl` [Example 38, N-(5-carbamoyl-2-adamantyl)-5-(2-chlorophenyl)-1-methylpyrrole-2-carboxamide], the IC50 against Human 11b-HSD1 and at Mouse 11b-HSD1 was less than 100 nM each time. The inhibition at 20 mg/kg on 11b-HSD1 (setting [1]) and at 11b-HSD1 (setting [2]) was 98% each time.

As to `Cn1c(C(=O)N[C@H]2C3CC4CC2C[C@](C(N)=O)(C4)C3)ccc1-c1ccccc1F` [Example 39, N-(5-carbamoyl-2-adamantyl)-5-(2-fluorophenyl)-1-methylpyrrole-2-carboxamide], the IC50 on Human 11b-HSD1 and against Mouse 11b-HSD1 was less than 100 nM each time. Further, the results for the inhibition at 20 mg/kg at 11b-HSD1 (setting [1]) and at 11b-HSD1 (setting [2]) were 98% and 96%, respectively.

Regarding `NC(=O)[C@]12CC3CC(C1)[C@@H](NC(=O)c1ccc(-c4ccccc4)s1)C(C3)C2` [Example 40, N-(5-carbamoyl-2-adamantyl)-5-phenylthiophene-2-carboxamide], the IC50 against Human 11b-HSD1 and against Mouse 11b-HSD1 was less than 100 nM each time. For the same molecule, the inhibition at 20 mg/kg at 11b-HSD1 (setting [1]) worked out at 63%; at 11b-HSD1 (setting [2]), 38%.

As to `NC(=O)[C@]12CC3CC(C1)[C@@H](NC(=O)c1ccc(-c4ccccc4Cl)s1)C(C3)C2` [Example 43, N-(5-carbamoyl-2-adamantyl)-5-(2-chlorophenyl)thiophene-2-carboxamide], the IC50 at Human 11b-HSD1 and on Mouse 11b-HSD1 was less than 100 nM throughout. Moreover, the inhibition at 20 mg/kg at 11b-HSD1 (setting [1]) was 70%; on 11b-HSD1 (setting [2]), 59%.

Turning to `NC(=O)[C@]12CC3CC(C1)[C@@H](NC(=O)c1ccc4ccccc4[n+]1[O-])C(C3)C2` [Example 64, N-(5-carbamoyl-2-adamantyl)-1-oxidoquinolin-1-ium-2-carboxamide], the IC50 on Human 11b-HSD1 is greater than 500 nM; at Mouse 11b-HSD1, 100 to 500 nM. In addition, the figures for the inhibition at 10 mg/kg at 11b-HSD1 (setting [1]) and at 11b-HSD1 (setting [2]) were 51% and 61%, respectively. Further, the inhibition at 20 mg/kg at 11b-HSD1 (setting [1]) came to 57%; on 11b-HSD1 (setting [2]) it was 48%.
